Several values for one entry are separate records, joined by “and”; a condition that tells them apart may be missing. Equal values may be shown once. Read-outs that look alike come from different tables or passages of the source.
Columns and labels:
[1] = target: T1, Human recombinant PDE3A (hPDE3A) (Homo sapiens, UniProt Q14432); assay: In vitro assay PDE3A (SPA, 3H-cAMP hydrolysis); format: biochemical; conditions: for IC50: hPDE3B pIC50, read-out: pIC50 (converted); for Emax: read-out: hPDE3B Emax, read-out: Emax;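 as to all read-outs here: the method names PDE3A and the table heading PDE3B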
T1 construct: purchased Scottish Biomedical; host or cells: Sf9 insect cells
Procedure, shortened: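 Human PDE3A, cloned from brain, as partially purified Sf9 lysate. Substrate 0.4 μM cAMP plus [3H]-cAMP (2.4 μCi/ml final) in 50 mM Tris pH 7.8, 8.3 mM MgCl2, 1.7 mM EGTA, 60 min at room temperature, 1% DMSO final. Hydrolysis read by SPA scintillation counting against no-enzyme blanks and DMSO controls.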

[2] = target: T2, Human recombinant PDE10A (hPDE10A) (Homo sapiens, UniProt Q9Y233); assay: In vitro assay PDE10A, human clone (SPA, 3H-cAMP hydrolysis); format: biochemical; conditions: human clone (h), default; for Emax: read-out: hPDE10A2 Emax; for IC50: read-out: hPDE10A2 pIC50 (converted)
T2 construct: His tag (inferred from metal chelate purification); made in house; host or cells: Sf9 insect cells (baculovirus)
Procedure, shortened: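 Human recombinant PDE10A was expressed in Sf9 cells via baculovirus and incubated with compound in 50 mM Tris pH 7.8, 8.3 mM MgCl2, 1.7 mM EGTA. Substrate was 60 nM cAMP plus 0.008 μCi 3H-cAMP for 60 min at room temperature, read by SPA scintillation counting. Controls used 1% DMSO, and blanks omitted enzyme.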

[3] = target: T3, Human recombinant PDE2A (hPDE2A) (Homo sapiens, UniProt O00408); assay: In vitro assay PDE2A (SPA, 3H-cGMP hydrolysis); format: biochemical; conditions: for Emax: read-out: hPDE2A Emax
T3 construct: His tag (inferred from metal chelate purification); made in house; host or cells: Sf9 insect cells (baculovirus)

[4] = target: T4, Rat recombinant PDE10A (rPDE10A2) (Rattus norvegicus, UniProt Q9QYJ6); assay: In vitro assay PDE10A, rat clone (SPA, 3H-cAMP hydrolysis); format: biochemical; conditions: for IC50: read-out: rPDE10A2 pIC50 (converted)
T4 construct: His tag (inferred from metal chelate purification); made in house; host or cells: Sf9 insect cells (baculovirus)
T4 sequence (Q9QYJ6 1-794): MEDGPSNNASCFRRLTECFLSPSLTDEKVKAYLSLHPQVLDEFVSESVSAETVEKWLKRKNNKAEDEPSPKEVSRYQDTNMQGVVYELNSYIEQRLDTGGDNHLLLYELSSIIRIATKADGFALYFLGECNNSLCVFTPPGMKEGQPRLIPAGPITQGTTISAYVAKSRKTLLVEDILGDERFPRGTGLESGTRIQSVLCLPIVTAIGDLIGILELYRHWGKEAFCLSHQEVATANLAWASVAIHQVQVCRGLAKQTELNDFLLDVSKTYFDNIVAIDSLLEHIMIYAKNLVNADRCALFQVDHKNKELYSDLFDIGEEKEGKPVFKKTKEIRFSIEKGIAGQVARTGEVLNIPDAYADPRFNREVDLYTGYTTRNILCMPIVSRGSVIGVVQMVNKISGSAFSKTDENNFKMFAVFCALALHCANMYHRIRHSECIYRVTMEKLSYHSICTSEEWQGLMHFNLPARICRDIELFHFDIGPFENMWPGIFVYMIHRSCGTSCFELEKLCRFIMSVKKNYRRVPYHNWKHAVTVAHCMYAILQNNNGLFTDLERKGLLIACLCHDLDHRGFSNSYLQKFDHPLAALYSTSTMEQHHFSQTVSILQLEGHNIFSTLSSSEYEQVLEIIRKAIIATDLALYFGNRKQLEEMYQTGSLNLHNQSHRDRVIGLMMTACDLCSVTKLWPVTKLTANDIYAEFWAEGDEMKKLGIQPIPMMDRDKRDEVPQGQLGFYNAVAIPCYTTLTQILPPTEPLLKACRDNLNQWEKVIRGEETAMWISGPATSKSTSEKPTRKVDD
Experimental: Rat recombinant PDE10A (rPDE10A2) was expressed in Sf9 cells using a recombinant rPDE10A baculovirus construct. Cells were harvested after 48 h of infection and the rPDE10A protein was purified by metal chelate chromatography on Ni-sepharose 6FF. Tested compounds were dissolved and diluted in 100% DMSO to a concentration 100 fold of the final concentration in the assay. Human recombinant PDE10A ([…]) was expressed in Sf9 cells using a recombinant hPDE10A baculovirus that was made and amplified in house. Cells were harvested after 72 h of infection and the hPDE10A protein was purified by metal chelate chromatography on Ni-sepharose. Compound dilutions (0.4 μl) were added in 384 well plates to 20 μl of incubation buffer (50 mM Tris pH 7.8, 8.3 mM MgCl2, 1.7 mM EGTA). 10 μl of rPDE10A or hPDE10A enzyme in incubation buffer was added and the reaction was started by addition of 10 μl substrate to a final concentration of 60 nM cAMP and 0.008 μCi ^3H-cAMP. The reaction was incubated for 60 minutes at room temperature. After incubation, the reaction was stopped with 20 μl of stop solution consisting of 17.8 mg/ml PDE SPA (scintillation proximity assay) beads. After sedimentation of the beads during 30 minutes the radioactivity was measured in a Perkin Elmer Topcount scintillation counter and results were expressed as cpm. For blanc values the enzyme was omitted from the reaction and replaced by incubation buffer. Control values were obtained by addition of a final concentration of 1% DMSO instead of compound. A best fit curve is fitted by a minimum sum of squares method to the plot of % of control value subtracted with blanc value versus compound concentration and the half maximal inhibitory concentration (IC50) value is derived from this curve.

[5] = system: hippocampal Shaffer collateral-CA1 synapses; conditions: for Basal synaptic transmission, change versus vehicle-treated control during baseline pre-tetanus: urethane-anesthetized rats, SC-CA1 fEPSP slope; for Enduring (>2 h) synaptic potentiation after HFS (fEPSP slope, % of pre-tetanus baseline): vehicle level 119±4%; for fEPSP slope at 0-30 min after completion of the tetanization: vehicle level 139±1%
PDE2A = target: T5, PDE2A (Rattus norvegicus, UniProt Q01062); assay: PDE2 occupancy by test compounds, ex-vivo autoradiography with [3H]B-17a; format: in vivo, Male Wistar rats; conditions: route PO (oral); for receptor occupancy at 10 mg/kg: po; for ED50: drug dose producing 50% receptor occupancy, read-out: PDE Occupancy ED50
T5 construct: Twenty μm-thick striatal sections were cut; from tissue; host or cells: rat brain, striatal sections
T5 sequence (Q01062 1-928): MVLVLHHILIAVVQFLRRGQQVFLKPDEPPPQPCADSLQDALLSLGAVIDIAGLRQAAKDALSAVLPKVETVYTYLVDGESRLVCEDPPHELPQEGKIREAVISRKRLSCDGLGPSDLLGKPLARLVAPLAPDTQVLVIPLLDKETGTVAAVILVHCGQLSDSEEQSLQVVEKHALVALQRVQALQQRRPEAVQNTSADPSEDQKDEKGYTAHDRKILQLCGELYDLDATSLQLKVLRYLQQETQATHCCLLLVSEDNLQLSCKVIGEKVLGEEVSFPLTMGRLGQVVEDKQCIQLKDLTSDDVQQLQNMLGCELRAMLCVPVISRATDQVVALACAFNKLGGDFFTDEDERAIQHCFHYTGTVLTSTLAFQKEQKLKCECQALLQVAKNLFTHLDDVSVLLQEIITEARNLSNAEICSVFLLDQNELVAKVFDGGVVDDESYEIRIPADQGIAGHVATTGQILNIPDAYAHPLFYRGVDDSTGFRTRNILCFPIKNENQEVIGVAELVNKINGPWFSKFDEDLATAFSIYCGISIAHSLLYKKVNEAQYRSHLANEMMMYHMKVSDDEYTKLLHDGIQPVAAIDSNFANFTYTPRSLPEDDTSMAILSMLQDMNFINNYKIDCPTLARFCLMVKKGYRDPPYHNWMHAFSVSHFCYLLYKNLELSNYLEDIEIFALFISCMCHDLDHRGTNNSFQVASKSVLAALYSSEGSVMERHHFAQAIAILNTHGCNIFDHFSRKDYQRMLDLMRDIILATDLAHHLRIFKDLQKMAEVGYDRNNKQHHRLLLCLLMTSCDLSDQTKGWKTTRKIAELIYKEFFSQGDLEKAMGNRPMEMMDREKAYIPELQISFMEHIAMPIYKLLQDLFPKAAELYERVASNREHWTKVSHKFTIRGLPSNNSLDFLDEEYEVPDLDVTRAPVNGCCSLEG

[6] = human recombinant PDE2A, 10 μM cGMP substrate, read-out: hPDE2A pIC50 (converted)
[7] = read-out: hPDE2A pIC50 (converted)
[8] = 10 mg/kg, percentage receptor occupancy, ex-vivo autoradiography, striatum

T1 sequence (Q14432 whole entry): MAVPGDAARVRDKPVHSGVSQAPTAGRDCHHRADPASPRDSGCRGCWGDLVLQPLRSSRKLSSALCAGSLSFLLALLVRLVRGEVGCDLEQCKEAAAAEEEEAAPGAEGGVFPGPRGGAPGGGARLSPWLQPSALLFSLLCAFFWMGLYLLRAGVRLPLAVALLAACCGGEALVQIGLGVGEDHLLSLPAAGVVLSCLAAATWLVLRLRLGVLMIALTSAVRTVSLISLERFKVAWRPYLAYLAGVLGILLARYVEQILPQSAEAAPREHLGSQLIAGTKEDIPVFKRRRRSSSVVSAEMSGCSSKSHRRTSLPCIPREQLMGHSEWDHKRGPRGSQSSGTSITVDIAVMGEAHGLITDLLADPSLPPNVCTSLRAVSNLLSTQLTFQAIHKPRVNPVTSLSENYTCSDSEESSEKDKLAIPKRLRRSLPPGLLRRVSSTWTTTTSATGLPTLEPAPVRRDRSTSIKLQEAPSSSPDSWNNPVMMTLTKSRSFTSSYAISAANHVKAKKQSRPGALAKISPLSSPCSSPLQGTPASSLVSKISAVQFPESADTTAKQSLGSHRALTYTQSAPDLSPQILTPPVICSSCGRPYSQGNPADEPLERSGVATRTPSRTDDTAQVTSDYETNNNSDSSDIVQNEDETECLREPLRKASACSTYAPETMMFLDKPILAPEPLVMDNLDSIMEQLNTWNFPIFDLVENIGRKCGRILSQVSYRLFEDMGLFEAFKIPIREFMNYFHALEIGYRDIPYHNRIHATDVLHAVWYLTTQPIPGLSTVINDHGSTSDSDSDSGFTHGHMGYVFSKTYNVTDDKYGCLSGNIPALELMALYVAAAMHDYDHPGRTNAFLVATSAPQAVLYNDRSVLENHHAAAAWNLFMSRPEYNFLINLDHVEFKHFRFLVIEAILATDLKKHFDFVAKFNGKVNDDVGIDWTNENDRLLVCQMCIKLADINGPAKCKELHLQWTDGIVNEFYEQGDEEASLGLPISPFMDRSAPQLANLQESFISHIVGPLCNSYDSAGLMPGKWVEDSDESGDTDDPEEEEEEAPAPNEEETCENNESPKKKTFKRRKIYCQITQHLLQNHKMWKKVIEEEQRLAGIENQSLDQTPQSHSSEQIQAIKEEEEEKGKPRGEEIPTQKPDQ
T3 sequence (O00408 whole entry): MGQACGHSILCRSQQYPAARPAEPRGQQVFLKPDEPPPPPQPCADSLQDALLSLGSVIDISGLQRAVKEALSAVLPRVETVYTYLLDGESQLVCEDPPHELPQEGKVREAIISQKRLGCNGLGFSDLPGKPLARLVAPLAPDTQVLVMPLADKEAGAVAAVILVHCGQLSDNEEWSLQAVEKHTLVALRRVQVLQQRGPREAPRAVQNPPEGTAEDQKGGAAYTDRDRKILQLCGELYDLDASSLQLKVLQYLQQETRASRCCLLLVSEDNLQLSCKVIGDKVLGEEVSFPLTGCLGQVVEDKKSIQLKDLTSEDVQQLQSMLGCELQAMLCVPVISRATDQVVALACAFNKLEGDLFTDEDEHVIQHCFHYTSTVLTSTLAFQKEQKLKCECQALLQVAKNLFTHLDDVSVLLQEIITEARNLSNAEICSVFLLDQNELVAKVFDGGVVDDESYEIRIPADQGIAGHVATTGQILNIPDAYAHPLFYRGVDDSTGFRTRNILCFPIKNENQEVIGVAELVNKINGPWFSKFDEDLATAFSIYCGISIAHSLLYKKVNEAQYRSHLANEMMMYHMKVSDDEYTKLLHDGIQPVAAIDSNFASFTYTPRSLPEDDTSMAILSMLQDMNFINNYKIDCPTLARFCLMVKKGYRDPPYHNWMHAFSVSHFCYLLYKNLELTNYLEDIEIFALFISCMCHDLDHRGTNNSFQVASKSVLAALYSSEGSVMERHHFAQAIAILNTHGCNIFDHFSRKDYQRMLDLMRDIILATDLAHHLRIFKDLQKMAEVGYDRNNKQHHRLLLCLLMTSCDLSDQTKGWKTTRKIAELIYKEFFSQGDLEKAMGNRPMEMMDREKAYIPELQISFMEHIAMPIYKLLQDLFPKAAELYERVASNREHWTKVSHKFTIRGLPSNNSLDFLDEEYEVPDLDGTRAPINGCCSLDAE
T2 sequence (Q9Y233 267-1055): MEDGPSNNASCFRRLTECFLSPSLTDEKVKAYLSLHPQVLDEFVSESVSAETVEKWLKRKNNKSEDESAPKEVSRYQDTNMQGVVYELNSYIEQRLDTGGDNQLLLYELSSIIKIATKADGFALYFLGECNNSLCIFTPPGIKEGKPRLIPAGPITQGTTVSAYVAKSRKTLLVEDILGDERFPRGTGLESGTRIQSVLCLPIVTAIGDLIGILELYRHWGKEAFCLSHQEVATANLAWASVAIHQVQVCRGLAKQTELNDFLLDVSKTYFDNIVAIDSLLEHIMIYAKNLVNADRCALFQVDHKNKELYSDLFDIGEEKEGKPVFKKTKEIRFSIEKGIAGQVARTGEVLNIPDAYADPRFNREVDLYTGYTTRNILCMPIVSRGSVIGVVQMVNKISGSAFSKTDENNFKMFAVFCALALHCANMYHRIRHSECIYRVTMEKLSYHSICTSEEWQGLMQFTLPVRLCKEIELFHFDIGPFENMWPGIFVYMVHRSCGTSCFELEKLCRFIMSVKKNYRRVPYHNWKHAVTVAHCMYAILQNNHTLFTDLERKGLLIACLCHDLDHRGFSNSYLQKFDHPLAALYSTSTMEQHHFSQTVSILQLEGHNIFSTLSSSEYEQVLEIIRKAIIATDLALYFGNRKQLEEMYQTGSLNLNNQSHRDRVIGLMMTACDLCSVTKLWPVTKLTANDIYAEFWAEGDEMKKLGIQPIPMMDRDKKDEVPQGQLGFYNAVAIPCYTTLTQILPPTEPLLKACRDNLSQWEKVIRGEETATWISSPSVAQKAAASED

| SMILES | melting point [°C] | IC50 [1] [nM] | Emax [1] [%] | Emax [2] [%] | IC50 [2] | IC50 [3, 6] [nM] | Emax ([3]; human recombinant PDE2A) [%] | Emax [3] [%] | IC50 [3, 7] [nM] | Emax ([4]; rat clone (r)) [%] | IC50 ([4]; rat clone (r)) [nM] | rPDE10A2 pIC50 ([4]; rat clone, indicated as (r)) | receptor occupancy at 10 mg/kg (PDE2A; [8]) [%] | further results |
| --- | --- | --- | --- | --- | --- | --- | --- | --- | --- | --- | --- | --- | --- | --- |
| CC1(c2ccnc3ncnn23)CCCN(C(=O)c2ccc3occc3c2)C1 (stereo not shown) [Compound 202] | 78.65 | > 10000 | 18 | 38 | > 10000 nM | 2690 | 30 | 30 | 2690 | 4 | > 10000 | <5 (r) | – | – |
| COc1cc(C(=O)N2CC[C@@H](C)[C@H](c3cc(C(F)F)nc4ncnn34)C2)cc(C)n1 [Compound 110] | – | 3390 | 76 | 98 | 72.4 nM and 112 nM | 0.955 | 101 | 100 | 1.32 | – | – | – | 75 | Basal synaptic transmission, change versus vehicle-treated control during baseline pre-tetanus ([5]; 20 mg/kg subcutaneous): +8%; Enduring (>2 h) synaptic potentiation after HFS (fEPSP slope, % of pre-tetanus baseline) ([5]; 20 mg/kg subcutaneous): 137±8%; fEPSP slope at 0-30 min after completion of the tetanization ([5]; 20 mg/kg subcutaneous, p<0.05): 153±5%; Basal synaptic transmission, change versus vehicle-treated control during baseline pre-tetanus ([5]; 40 mg/kg subcutaneous): 9%; fEPSP at 90-120 min after tetanization ([5]; 40 mg/kg subcutaneous, vehicle level 106±13%, p<0.05): 129±5%; fEPSP at 60-90 min after tetanization ([5]; 40 mg/kg subcutaneous, vehicle level 116±9, p<0.05): 137±5%; Enduring (>2 h) synaptic potentiation after HFS (fEPSP slope, % of pre-tetanus baseline) ([5]; 40 mg/kg subcutaneous): 142±5%; fEPSP at 30-60 min after tetanization ([5]; 40 mg/kg subcutaneous, vehicle level 125±6, p<0.05): 146±6%; fEPSP slope at 0-30 min after completion of the tetanization ([5]; 40 mg/kg subcutaneous, p<0.05): 155±4%; Overall effect on basal synaptic transmission and LTP in vivo ([5]; 20 and 40 mg/kg subcutaneous, anesthetized rats): facilitates basal synaptic transmission and LTP in vivo; Slope of the SC-CA1 path fEPSPs across the I/O curves (excitability of CA1 cells) ([5]; 20 and 40 mg/kg versus vehicle, FIG. 16b, c): No differences; ED50 (PDE2A): 8.3 mg/kg |
| CC(=O)N1CCc2cc(C(=O)N3CCC[C@@](C)(c4cc(C(F)F)nc5ncnn45)C3)ccc21 (single isomer, unassigned) [Compound 203] | 204.03 | > 10000 | 41 | – | – | 955 | 48 | 48 | 955 | 14 | > 10000 | <5 (r) | – | – |
| C[C@@H]1CCN(C(=O)c2ccc3occc3c2)C[C@H]1c1cc(C(F)F)nc2ncnn12 [Compound 97] | – | – | – | 101 | 53.7 nM | – | – | – | – | 99 | 34.7 | 7.46 (r) | – | – |
| C[C@@H]1CCN(C(=O)c2ccc3nccn3c2)C[C@H]1c1cc(C(F)F)nc2ncnn12 [Compound 40] | 181.11 | 7080 | 58 | 97 | 123 nM | 0.355 | 101 | 101 | 0.355 | – | – | – | – | rPDE10A2 pIC50 ([4]; rat clone (r)): 7.1 (r); Emax ([4]; rat clone, indicated as (r)): 96%; IC50 ([4]; rat clone, indicated as (r)): 79.4 nM |
| CC1(c2cc(C(F)F)nc3ncnn23)CCCN(C(=O)c2ccc3occc3c2)C1 (stereo not shown) [Compound 201] | 140.14 | > 10000 | 24 | – | – | 646 | 61 | 61 | 646 | -1 | 3090 | 5.51 (r) | – | – |
| COc1cc(C(=O)N2CC[C@@H](C)[C@H](c3cc(C)nc4ncnn34)C2)cc(Cl)n1 [Compound 22] | 217.82 | 1510 | 87 | 99 | 15.8 nM | – | – | 100 | – | – | – | – | 18 | IC50 ([3]; hPDE2A pIC50): 2.34 nM; IC50 ([3]; hPDE2A pIC50, human recombinant PDE2A, 10 μM cGMP substrate): 2.34 nM; PDE2 Occupancy at 10 mg/kg (PDE2A; [8]): 30 |
| COc1c(C)cc(C(=O)N2CC[C@@H](C)[C@H](c3cc(C(F)F)nc4ncnn34)C2)cc1C [Compound 77] | 177.37 | 676 | 96 | 98 | 83.2 nM | 0.457 | 101 | 101 | 0.457 | – | – | – | 54 | ED50 (PDE2A): 5.67 mg/kg |
